Read-outs that look alike come from different tables or passages of the source.
Experiments:
PfPMT = PfPMT (Plasmodium falciparum, UniProt Q8IDQ9); experiment: PfPMT gene replacement yeast growth
[1] = system: P. falciparum NF54 gametocytes stage I-V; design: method as in ref [58, 65] (a number printed in a supplementary file, which may have a reference list of its own: not looked up in the article's list); details: 12.5µM; ref [58, 65]; cited from earlier work
[2] = system: B. bigemina (Argentine strain); experiment: B. bigemina fluorescence-based growth assay; format: cell-based; details: Babesia bigemina
Aedes aegypti = Aedes aegypti Scynexis; details: 10µM
Method: Supplement ppat.1005763.s002.xlsx, sheet "S1 Table Heat Map" | column: Aedes aegypti % dead 48hr 10 µM Synexis

HepG2-A16-CD81EGFP cells = details: 50uM; ref [58, 65]; cited from earlier work
P. berghei ookinetes = experiment: P. berghei Ookinete Development Assay (Pb ODA); format: cell-based; details: Plasmodium berghei
From the text: Columns BX- CA, CD-DF: Delves, Ruecker, & Sinden group (Data and methods published in ref [82] except Column CE which is new data) The data represent our primary screening data in the P. falciparum Dual Gamete formation assay (Pf DGFA). They show the functional viability of mature Stage V male and female gametocytes as reported by their ability to undergo gamete formation as reported in the reference. Column CD represents primary screening data in the P. berghei Ookinete Development Assay (Pb ODA) at 1 µM as reported in the reference. Column CE represents a parallel screen in the Pb ODA at 10 µM that has not been published.

[3] = system: P. berghei liver stages in HepG2; experiment: P. berghei liver stage luciferase Hanson; format: cell-based; details: Plasmodium berghei, read-out: P. berghei Liver Stage % of control infection (Luciferase)
Method: Columns AS-AT: Hanson group (data presented first in this paper). P. berghei liver stage growth. Phenotypic analysis of Malaria Box compound activity against P. berghei liver stages and assay development will be reported elsewhere (Medina Vera, Itoe, et al; in preparation). Methods: Screening was carried out in 96 well plates, with 10,000 HepG2 cells (ATCC) seeded one day prior to infection with 10,000 P. berghei-Luciferase (676m1cl1) sporozoites per well in the presence of 1:300 Fungizone (Life Technologies). Medium was replaced 2 hours post-infection (hpi) and the Malaria Box compounds were added at a final concentration of 5 µM at this time. At 48 hpi, parasite load, by way of luminescence, was quantified after a 10 minute incubation with 50 µl of 150 µg/ml D-Luciferin on a Tecan Infinite M200 plate reader. Plates included 8 wells of DMSO (compound vehicle and positive control for infection), along with 8 non-infected wells serving as negative controls. Luminescence values for individual wells were normalized to the mean of the in-plate DMSO controls, which was set at 100. […] The normalized mean of non-infected control wells was 2.5, with a standard deviation of 2. Data presented are the average of 3 independent experiments, each conducted in technical triplicate. Toxicity of the compounds was determined at 66 hpi based on HepG2 cell abundance in 9 non-overlapping images per well, generated with a Molecular Devices IXM using a 40x objective. Briefly, EEFs were identified based on 2E6 immunolabeling and used to mask widefield images of Hoechst 33452-labeled nuclei, and the percentage of each 2,160 x 2,160 pixel image occupied by Hoechst^+ pixels, representing HepG2 nuclei only, was then determined for all images in CellProfiler. Data is from one representative experiment. The mean area occupied by HepG2 nuclei in the 8 DMSO controls wells was set to 1, and used to normalize those treated with compounds.

[4] = system: Trypanosoma brucei brucei 427; experiment: T. brucei brucei Scynexis; format: cell-based
[5] = system: Mycobacterium tuberculosis mc26220 non-replicating; experiment: microbe, parasite or virus in culture; format: cell-based
[6] = Plasma protein binding human; format: in vitro ADME
Method: Columns GD-GJ: Wuxi Inc. data for MMV (data presented first in this paper) PK/DMPK Parameters: Fasted animals (Male CD-1 mouse, 7-9 weeks age, 30±10 g, n=3) obtained from an approved vendor (SLAC Laboratory Animal Co. Ltd., Shanghai, China or Sino-British SIPPR/BK Laboratory Animal Co. Ltd Shanghai, China) were administered with a single oral dose (140 μmol/kg) using DMSO: 1% HPMC (5:95) as a vehicle. Blood sampling was performed via the submandibular or saphenous vein (t=0.083, 0.25, 1, 2, 4, 6 and 9 h) and transferred into microcentrifuge tubes containing Sodium Heparin (1,000 IU/ml) as anti-coagulant placed on wet ice until processed for plasma by centrifugation at approximately 4°C, 3000×g for 15 min. Plasma samples were stored in polypropylene tubes, quick frozen over dry ice and kept at -70±10°C until LC/MS/MS analysis. LC/MS/MS methods for the quantitative determination compounds plasma levels were developed with an internal standard. […] (Phoenix WinNonlin, version 6.2.1, Pharsight, Mountain View, CA) and expressed as Cmax & AUC0-last. […] AUC0-last is the area under the curve expressed as >12 h*μM (Yes or No). Plasma protein binding assay (PPB) (CD-1 mouse and human) expressed as <95% bound, >95% bound, or >99% bound. Kinetic Solubility at pH 7.4 was determined by liquid chromatography/chemiluminescence nitrogen detection (LC/CLND) and was scored as greater than 20µM (Yes or No). hERG inhibition was measured at 11µM by the QPatch- HT system and is expressed as “Yes” if greater than 45% inhibited at 11µM and “No” if less than or equal to 45% inhibited at 11µM. As part of the Drug-Drug Interaction studies (DDI issues), 5 human and 1 mouse CYP isoforms (1A2, 2C9, 2C19, 2D6, 3A4-M, 3A4-T) were tested for inhibition assay at 10 µM. […] Otherwise DDI issues were scored as “No”. Positive and negative controls were run for each assay (Table 1).

[7] = read-out: % Inhibition in PfPMT gene replacement yeast, no added choline
[8] = read-out: % Inhibition in PfPMT gene replacement yeast, with added choline

Sequence of PfPMT (Q8IDQ9 whole entry): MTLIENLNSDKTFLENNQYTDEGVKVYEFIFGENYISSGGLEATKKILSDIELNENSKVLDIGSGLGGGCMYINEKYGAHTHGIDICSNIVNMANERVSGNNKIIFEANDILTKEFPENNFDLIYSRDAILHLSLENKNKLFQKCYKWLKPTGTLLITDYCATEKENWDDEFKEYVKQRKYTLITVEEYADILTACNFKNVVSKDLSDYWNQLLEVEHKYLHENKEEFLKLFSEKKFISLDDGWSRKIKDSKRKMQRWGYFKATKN

## COc1ccc(C(=O)Nc2ccc3nc(N4CCCCC4)cc(C)c3c2)cc1OC [MMV019758]
PfPMT; [7]
  inhibition at 100 µM: 0%
PfPMT; [8]
  inhibition at 100 µM: 0%
[1]
  gametocyte Stage I % inhibition: 72%
  gametocyte Stage II % inhibition: 41%
  gametocyte Stage III % inhibition: 3.44%
  gametocyte Stage IV % inhibition: 8%
  gametocyte Stage V % inhibition: 0.3%
[2]
  EC50: 0.46 µM
Aedes aegypti
  Aedes aegypti % dead 48hr: 6%
HepG2-A16-CD81EGFP cells
  HepG2 toxicity rep 1: -1%
  HepG2 toxicity rep 2: -1.21%
P. berghei ookinetes
  inhibition at 10 µM: 35.4%
[3]
  activity at 5 µM: 74%
[4]
  inhibition at 5 µM: -11%
[5]
  inhibition at 25 µM: 24%
[6]
  fraction unbound: < 0.01

## COc1cc2cc(C(=O)Nc3ccccc3)c(N)nc2cc1OC [MMV006767]
PfPMT; [7]
  inhibition at 100 µM: 0%
PfPMT; [8]
  inhibition at 100 µM: 0%
[1]
  gametocyte Stage I % inhibition: 96%
  gametocyte Stage II % inhibition: 56%
  gametocyte Stage III % inhibition: 26%
  gametocyte Stage IV % inhibition: 12%
  gametocyte Stage V % inhibition: 23%
[2]
  EC50: 21.1 µM
Aedes aegypti
  Aedes aegypti % dead 48hr: -3%
HepG2-A16-CD81EGFP cells
  HepG2 toxicity rep 1: 82%
  HepG2 toxicity rep 2: 90%
P. berghei ookinetes
  inhibition at 10 µM: 39.4%
[3]
  activity at 5 µM: 53%
[4]
  inhibition at 5 µM: -54%
[5]
  inhibition at 25 µM: 1.39%
[6]
  fraction unbound: > 0.05

## CCN(CC)c1cc(C)c2cc(NC(=O)c3cccc(OC)c3)ccc2n1 [MMV000498]
PfPMT; [7]
  inhibition at 100 µM: 16%
PfPMT; [8]
  inhibition at 100 µM: 0%
[1]
  gametocyte Stage I % inhibition: 84%
  gametocyte Stage II % inhibition: 43%
  gametocyte Stage III % inhibition: 12%
  gametocyte Stage IV % inhibition: 1.56%
  gametocyte Stage V % inhibition: -1.9%
[2]
  EC50: 8.99 µM
Aedes aegypti
  Aedes aegypti % dead 48hr: 19%
HepG2-A16-CD81EGFP cells
  HepG2 toxicity rep 1: 0.453%
  HepG2 toxicity rep 2: -1.24%
P. berghei ookinetes
  inhibition at 10 µM: -0.6%
[3]
  activity at 5 µM: 63%
[4]
  inhibition at 5 µM: 74%
[5]
  inhibition at 25 µM: 20%
[6]
  fraction unbound: < 0.01

## CCOC(=O)c1cnc2ccc(OC)cc2c1NCc1ccccc1 [MMV665813]
PfPMT; [7]
  inhibition at 100 µM: 0%
PfPMT; [8]
  inhibition at 100 µM: 0%
[1]
  gametocyte Stage I % inhibition: 68%
  gametocyte Stage II % inhibition: 46%
  gametocyte Stage III % inhibition: -0.559%
  gametocyte Stage IV % inhibition: 15%
  gametocyte Stage V % inhibition: 12%
[2]
  EC50: 1 µM
Aedes aegypti
  Aedes aegypti % dead 48hr: -2%
HepG2-A16-CD81EGFP cells
  HepG2 toxicity rep 1: -1.52%
P. berghei ookinetes
  inhibition at 10 µM: 33.4%
[3]
  activity at 5 µM: 66%
[4]
  inhibition at 5 µM: -25%
[5]
  inhibition at 25 µM: 23%
[6]
  fraction unbound: < 0.01

## CCN1CCN(c2cc(C)c3cc(NC(=O)c4ccc(OC)c(OC)c4)ccc3n2)CC1 [MMV019074]
PfPMT; [7]
  inhibition at 100 µM: 0%
PfPMT; [8]
  inhibition at 100 µM: 0%
[1]
  gametocyte Stage I % inhibition: 66%
  gametocyte Stage II % inhibition: 32%
  gametocyte Stage III % inhibition: -6%
  gametocyte Stage IV % inhibition: 16%
  gametocyte Stage V % inhibition: 9%
[2]
  EC50: 7.92 µM
Aedes aegypti
  Aedes aegypti % dead 48hr: -20%
HepG2-A16-CD81EGFP cells
  HepG2 toxicity rep 1: 1.64%
  HepG2 toxicity rep 2: -0.0766%
P. berghei ookinetes
  inhibition at 10 µM: 43%
[3]
  activity at 5 µM: 105%
[4]
  inhibition at 5 µM: 45%
[5]
  inhibition at 25 µM: 13%
[6]
  fraction unbound: > 0.05

Source: publication PMC4965013, “Open Source Drug Discovery with the Malaria Box Compound Collection for Neglected Diseases and Beyond” (PLoS Pathogens, 2016)
